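Exposure lasted 48 hours, with cells grown in 96-well plates and compounds tested at five concentrations. GI50 is the concentration that inhibits growth by half. TGI is the concentration that stops growth completely.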

What all share (assay): NCI-60 cell line screen, 48 h
In assay [1] the test system is HS 578T breast.
Assay [2] deals with LOX IMVI melanoma.
Assay [3] deals with NCI-H226 lung.
Assay [4] has as its system MCF7 breast.
The subject of assay [5] is OVCAR-5 ovarian.
The subject of assay [6] is NCI-H460 lung.
Assay [7] relates to NCI-H23 lung.
For assay [8], the system named is HCC-2998 colon.
The subject of assay [9] is A549 NSCLC.
For assay [10], the system named is T-47D breast.

As for `N#CCCN(CCCCN(CCC#N)C(=O)Nc1ccccc1)C(=O)Nc1ccccc1`, the TGI in assay [1], in assay [2], in [3], in assay [4], in assay [5] and in [6] was above 100 µM each time. Further, the TGI in assay [7], in assay [8], in [9] and in assay [10] was above 100 µM in each case.
For `O=c1c2cccnc2oc2c(Cl)cc(-c3nn[nH]n3)cc12`, the TGI in assay [1], in [3], in assay [5], in assay [7], in assay [8] and in [9] was above 100 µM each time. Also, in assay [10], the TGI was above 100 µM.
For the compound `CCOC(=O)c1sc2nc(SC)nc3c2c1NCN3C`, the TGI was 59.4 µM in [1]; above 100 µM in assay [2]; above 100 µM in assay [3]; above 100 µM in assay [5]; above 100 µM in assay [6]; 59.1 µM in assay [7]. Also, the TGI was above 100 µM in [8], above 100 µM in [9] and 25.9 µM in assay [10].
For the compound `O/N=C1\C/C(=N\O)c2c(Br)sc(Br)c21`, the TGI was 30.9 µM in assay [1]; 45.2 µM in assay [2]; above 100 µM in assay [3]; above 100 µM in assay [4]; above 100 µM in assay [6]; 59.3 µM in assay [7]. Also, the TGI in [8] was 50.2 µM; in [9], above 100 µM; in [10], above 100 µM.
Regarding `CC(C)OC1=C(CC2(C)OCCO2)C(=O)C12OCCO2`, the TGI in assay [1], in assay [2], in assay [3], in assay [4], in assay [5] and in assay [6] was above 100 µM in each case. The TGI in assay [7], in assay [9] and in [10] was above 100 µM throughout.
Consider `Cc1ccc2sc3c(NCCCN)nc4ccccc4c3c(=O)c2c1`, for which the GI50 was 2.05 µM in assay [1]; 1.66 µM in assay [2]; 1.84 µM in assay [3]; 1.77 µM in assay [4]; 1.71 µM in [5]; 1.84 µM in [6]. Also, the GI50 is 1.82 µM in assay [7], 1.74 µM in assay [8] and 1.89 µM in [10]. For the same compound, the TGI in assay [1] was found to be 5.19 µM; in [2] it was 3.08 µM; in [3], 3.66 µM; in [4] it was 3.36 µM; in [5], 3.27 µM; in assay [6] it was 3.56 µM. For the same compound, the TGI in [7] is 3.37 µM; in assay [8] it was 3.25 µM; in assay [10], 4.57 µM.
For the compound `CCOP(=O)(OCC)C(Nc1ccc(Cl)cc1)c1ccc(F)cc1` (stereo unspecified), the TGI is 54.4 µM in assay [1]; 29.1 µM in assay [2]; 88 µM in assay [3]; 48.2 µM in assay [6]; 53.9 µM in assay [7]; 59.1 µM in assay [8]. The TGI is above 100 µM in [9] and 40.8 µM in [10].
For `COc1cc2nc(-c3cccs3)nc(N3CCN(c4ccccc4)CC3)c2cc1OC`, the TGI in assay [1], in assay [2], in assay [3], in [4], in assay [5] and in assay [6] was above 100 µM throughout. The TGI in assay [7], in assay [9] and in assay [10] was above 100 µM each time.
With `O=C(O)C(Cc1ccccc1)Cc1ccccc1`, the TGI in assay [1], in assay [2], in assay [3], in assay [4], in [5] and in assay [6] was above 100 µM in each case. For the same compound, the TGI in [7], in assay [9] and in [10] was above 100 µM each time.
Turning to `NS(=O)(=O)c1ccc(-c2ccc([As](=O)(O)O)cc2)cc1`, the TGI in assay [1], in assay [2], in [3], in assay [4], in [5] and in [6] was above 100 µM in each case. Further, the TGI in [7], in assay [9] and in assay [10] was above 100 µM in each case.
As for `Cc1cc(N(CCC#N)CCC#N)ccc1/C(N=Nc1ccc(C(=O)O)cc1)=N\NC(=O)c1ccccc1`, the TGI is 55.5 µM in assay [1]; above 100 µM in [3]; above 100 µM in assay [4]; above 100 µM in [5]; above 100 µM in [6]; above 100 µM in [7]. Also, the TGI in assay [8], in assay [9] and in [10] was above 100 µM in each case.
Take `COc1cc2c3c(n(C)c(=O)c2cc1OC)-c1cc2c(cc1/C3=C\CCCCl)OCO2`: the TGI in assay [1] was above 100 µM; in assay [2] it was above 100 µM; in [4], above 100 µM; in [5], above 100 µM; in assay [6], above 100 µM; in [7], 40.9 µM. Also, the TGI is 73.2 µM in assay [8], above 100 µM in [9] and above 100 µM in assay [10].
Turning to `CC(C)(C)OC(=O)N1C(=O)C2CCCC21` (stereo unspecified), the TGI in assay [1], in assay [2], in assay [3], in assay [5], in assay [6] and in [7] was above 100 µM throughout. The TGI in assay [8], in [9] and in [10] was above 100 µM in each case.
As for `[N-]=[N+]=Nc1cc(=O)[nH]c2ccccc12`, the TGI in assay [1], in [3], in assay [4], in assay [5], in assay [7] and in [9] was above 100 µM each time. This compound had a TGI in assay [10] above 100 µM.

These data come from PubChem BioAssay (NCI).
